The record followed here is patent US20250099485A1, “COMPOSITIONS FOR PROMOTING HAIR GROWTH” (ESTETRA SRL, priority 2021, published 2025).

Test [1] deals with CD34 positive cells in the suprabulbar ORS. Briefly: Hair follicle organ culture: CD34 expression, stem cell progeny. It counts as cell-based, human. To be noted: vs vehicle. The method, then:
(§1) 12-44 full-length frontotemporal hair follicles (HF) were obtained from four human female donors >50 years old. Donors were caucasian female subjects […], respectively (Donor 1: 12 temporal anagen HFs; Donor 2: 29; Donor 3: 44; Donor 4: 32). After microdissection from skin as described (Edelkamp et al., Methods Mol Biol, 2020, 2154:105-119; and Langan et al., Exp Dermatol, 2015, December; 24(12):903-1), HFs were placed in adequate culture medium and allowed a 24 h rest period to allow them to recover from the trauma of microdissection. Test substance (either vehicle (0.3% EtOH) or E4 at concentrations of 30 μM, 3 μM or 300 nM) was added to the medium at the end of the 24 h. Total culturing time was 5-7 days depending on the studied parameters and the experimental question. The experimental design for the hair follicle organ culture experiment is depicted in FIG. 12. Longer term culture experiments may be used to analyze the capacity to delay the onset of catagen.
CD34 is a marker expressed by the progeny of HF bulge stem cells. It is expressed in the most external layer of the outer root sheet (ORS) below the isthmus (sub-bulge to suprabulbar regions) (Purba et al., BioEssays, 2014, May; 36(5):513-25). CD34 expression and percentage of CD34^+ cells were analyzed in the suprabulbar ORS.

For the next test, the system named is K15 positive cells. Briefly: Hair follicle organ culture: K15 expression, stem cells. It counts as cell-based, human. To be noted: vs vehicle. The method, then: as §1
K15 is a type I cytokeratin expressed in HF bulge stem cells and their progeny (Purba et al., BioEssays, 2014). It is expressed in the bulge, infra-bulge and suprabulbar ORS. Bulge stem cells are identified using K15 expression, cellular morphology and anatomical localization (below the sebaceous glands, at the area where the arrector pili muscle attaches to the HF). K15 expression was analyzed in the bulge basal layer and in the suprabulbar ORS, and proliferation of K15 positive cells was evaluated in combination with Ki67 immunofluorescence staining.

Test [2] deals with Normal Human Dermal Fibroblasts (NHDFs). Briefly: Colonization of acellular area (IBIDI gap closure), fibroblasts. To be noted: for NHDF Migration (+MMC) (colonization of acellular area vs ethanol control): presence of mitomycin C, 6 h and 24 h contact, cell gives time of significant effect. In kind it is cell-based. The method, then:
The study consists in an in vitro assay aiming to evaluate the properties of E4 and E2 at 4 concentrations each on keratinocytes and fibroblasts. In this assay, the measurement of the colonization of a standard acellular surface generated from a confluent monolayer of cells using a dedicated culture device (IBIDI chamber) is performed. The assay is performed in absence and in presence of a proliferation inhibitor to focus on cell proliferation and migration or on migration only, respectively.
Normal Human foreskin-derived Dermal Fibroblast (NHDFs, ATCC) cells were grown in phenol-free Dulbecco's Modified Eagle Medium (DMEM, ThermoFisher Scientific) supplemented with 10% of Foetal Bovine Serum (FBS, ThermoFisher Scientific), L-glutamine and antibiotics. The cells were maintained in a humidified incubator at 37° C. with a 5% CO2 atmosphere.
Cells were plated in 2-well silicone inserts with a defined cell free gap (IBIDI chambers; IBIDI GmbH, 80209) that was previously inserted on 12-well culture plates. This culture device allows to create a standardized 500 μm±100 μm cell free gap for monitoring cell colonization. 24 h after seeding, when the culture reached high confluency, cells in the insert were treated, or not, with mitomycin C (MMC) at 10 μg/ml during 2 h. After these 2 hours, the insert was removed, and cells were treated with E2 or E4 in presence or not of MMC for additional 2 h. Then, if appropriate, the culture medium was removed and cells were treated with E2 or E4 for 22 h, in absence of MMC.
For the assay, keratinocytes were plated in Epilife medium without HKGS and all the treatments were performed in this medium. Fibroblasts were plated in DMEM medium containing only 2.5% of FBS and the treatments were performed in absence of FBS.
E2 and E4 were applied at 4 concentrations each (10^−7M, 10^−8M, 10^−9M, 10^−10M). In parallel, cells were treated with a positive control (HKGS 1% for human keratinocytes and PDGF-BB at 10 ng/ml for human fibroblasts).
To monitor cell colonization and to evaluate the gap closure rate, pictures of the gap were taken after different times: at time 0 h, corresponding to the beginning of the treatment with E2 or E4 and to the removal of the culture insert, at time 6 h and at time 24 h (corresponding to the end of the treatments with E2 or E4). Pictures were taken with a microscope Zeiss (Axiover 25-10× objective) and with a camera Invenio2EIII (DeltaPix—Lux-Optic). The colonized areas were quantified from the pictures by the use of the WimAsis platform—WimScratch software. For each insert, 3 pictures were taken at each time. As each condition was performed in triplicates, it means a total of 9 pictures per condition and per time point of acquisition

Test [3] concerns hair matrix keratinocytes. Briefly: Hair follicle organ culture: hair matrix keratinocytes proliferation and apoptosis (Ki-67/TUNEL). In kind it is cell-based, human. The settings on record: vs vehicle. The method, then:
as §1
Germinative hair matrix keratinocytes proliferate mostly during anagen. […] Apoptosis of hair matrix keratinocytes is used as an additional indicator of anagen/catagen transition.
Proliferation was assessed by quantification of the percentage of hair matrix keratinocytes in a clearly specified area (germinative hair matrix keratinocytes, below the Auber's line) that were positive for the proliferation marker Ki67 (or another proliferation marker such as BrdU or EdU), whereas apoptosis was assessed using TUNEL (TdT-mediated dUTP-biotin nick-end labelling) immunofluorescence (or another apoptosis marker such as activated caspase-3) in the same keratinocyte population (below the Auber's line) and in the precortical hair matrix keratincoytes (above the Auber's line) (Langan et al., Exp Dermatol 2015) (FIG. 13).

As for `C[C@]12CC[C@@H]3c4ccc(O)cc4CC[C@H]3[C@@H]1[C@@H](O)[C@@H](O)[C@@H]2O` [E4, 1,3,5 (10)-estratrien-3,15alpha,16alpha,17beta-tetrol], the results for the “increased percentage of CD34 positive cells in the suprabulbar ORS” value in test [1] (300 nM), in test [1] (3 μM) and in test [1] (30 μM) were “tendentially”, “significantly” and “tendentially”, respectively. Also, in the test with K15 positive cells (300 nM, 3 μM, 30 μM), the “percentage of K15 positive cells in the suprabulbar ORS” value is given as “did not have any effect”. In addition, the “decreased proliferation of K15 positive cells in the suprabulbar ORS (Ki-67)” value with K15 positive cells (300 nM) was “significantly”; in the test with K15 positive cells (3 μM), “tendentially”. Further, the “increased proliferation of K15 positive cells in the bulge basal layer (Ki-67)” value in the test on K15 positive cells (300 nM) is recorded as “tendentially”; in the test on K15 positive cells (3 μM) it was “tendentially”; in the test on K15 positive cells (30 μM) it was “significantly”. Further, the “percentage of K15 positive cells in the bulge basal layer” value with K15 positive cells (3 μM) is recorded as “significantly decreased”. The “NHDF Migration (+MMC) (colonization of acellular area vs ethanol control)” value in test [2] (10^−7M) and in test [2] (10^−8M) was “significantly increase the colonization of the acellular area” in each case. Moreover, the “NHDF colonization of the cell-free area” value in test [2] (absence of MMC, all four concentrations) is on record as “not able to significantly increase”. Further, in test [3] (300 nM, 3 μM, 30 μM), the “hair matrix keratinocytes apoptosis (TUNEL)” value is “without affecting”. For the same compound, the “increased hair matrix keratinocytes proliferation (Ki-67)” value is “tendentially” in test [3] (300 nM), “significantly” in test [3] (3 μM) and “tendentially” in test [3] (30 μM).
